Results: US8299056B2 (Signal Pharmaceuticals, LLC, priority 2008, dated 2012)

target: T1, Syk (Homo sapiens, UniProt P43405); assay: Syk HTRF assay; type: biochemical; settings: IC50 activity level, read-out: Activity Level
T1 construct: purchased Carna Biosciences
Outline: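 HTRF kinase assay in HEPES pH 7.6 buffer with MgCl2, DTT and Triton X100; start mix of 87.5 μM ATP and 80 nM biotinylated peptide, 1 h at room temperature. EDTA stop, then Eu-anti-phosphotyrosine/streptavidin-DyLight 647 detection, read as 665/615 nm emission ratio.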

Row | SMILES | IC50
1 | Nc1cc(-c2cccc3nc(Nc4ccccc4)nn23)ccn1 [Example 445, 5-(2-aminopyridin-4-yl)-N-phenyl-[1,2,4]triazolo[1,5-a]pyridin-2-amine] | 0.005 to 250 nM
2 | Cc1n[nH]c2cc(Nc3nc4cccc(C(F)(F)C5CCOCC5)n4n3)ccc12 [Example 562, 5-(difluoro(tetrahydro-2H-pyran-4-yl)methyl)-N-(3-methyl-1H-indazol-6-yl)-[1,2,4]triazolo[1,5-a]pyridin-2-amine] | 0.005 to 250 nM
3 | CN(C)Cc1nc2cc(-c3cccc4nc(Nc5ccccc5)nn34)ccc2[nH]1 [Example 486, 5-(2-((dimethylamino)methyl)-1H-benzo[d]imidazol-5-yl)-N-phenyl-[1,2,4]triazolo[1,5-a]pyridin-2-amine] | 0.005 to 250 nM
4 | NC(=O)c1cccc(Cc2cccc3nc(Nc4ccccc4)nn23)c1 [Example 442, 3-((2-(phenylamino)-[1,2,4]triazolo[1,5-a]pyridin-5-yl)methyl)benzamide] | 250 to 500 nM
5 | C1=C(c2cccc3nc(Nc4ccccc4)nn23)CCNC1 [Example 513, N-phenyl-5-(1,2,3,6-tetrahydropyridin-4-yl)-[1,2,4]triazolo[1,5-a]pyridin-2-amine] | 1000 to 10000 nM
6 | Cn1c(=O)[nH]c2cc(Nc3nc4cccc(N[C@H]5CC[C@@H](O)CC5)n4n3)ccc21 [Example 570, cis-5-(5-(4-hydroxycyclohexylamino)-[1,2,4]triazolo[1,5-a]pyridin-2-ylamino)-1-methyl-1H-benzo[d]imidazol-2(3H)-one] | 0.005 to 250 nM
7 | NC(=O)c1ccc(Nc2nc3cccc(NC4CCNCC4)n3n2)cc1 [Example 516, 4-(5-(piperidin-4-ylamino)-[1,2,4]triazolo[1,5-a]pyridin-2-ylamino)benzamide] | 1000 to 10000 nM
8 | COCc1n[nH]c2cc(Nc3nc4cccc(CC5CCOCC5)n4n3)ccc12 [Example 552, N-(3-(methoxymethyl)-1H-indazol-6-yl)-5-((tetrahydro-2H-pyran-4-yl)methyl)-[1,2,4]triazolo[1,5-a]pyridin-2-amine] | 0.005 to 250 nM
9 | NCCOc1cc(-c2cccc3nc(Nc4ccccc4)nn23)ccn1 [Example 444, 5-(2-(2-aminoethoxy)pyridin-4-yl)-N-phenyl-[1,2,4]triazolo[1,5-a]pyridin-2-amine] | 250 to 500 nM
10 | CC(CO)Cc1cccc2nc(Nc3ccccc3)nn12 (stereo in doubt) [Example 480, (S)-2-methyl-3-(2-(phenylamino)-[1,2,4]triazolo[1,5-a]pyridin-5-yl)propan-1-ol] | 250 to 500 nM

same assay, conditions: activity levels A-D, read-out: Activity Level (IC50 in the Syk HTRF assay)

Row | SMILES | IC50
11 | Oc1cc(Nc2nc3cccc(N[C@H]4CC[C@@H](O)CC4)n3n2)ccn1 [Example 331, cis-4-(5-(4-hydroxycyclohexylamino)-[1,2,4]triazolo[1,5-a]pyridin-2-ylamino)pyridin-2-ol] | 1000 to 10000 nM
12 | O=C1CN(Cc2cccc3nc(Nc4ccc(C(F)(F)F)cc4)nn23)CN1 [Example 301, 1-((2-(4-(trifluoromethyl)phenylamino)-[1,2,4]triazolo[1,5-a]pyridin-5-yl)methyl)imidazolidin-4-one] | 1000 to 10000 nM
13 | COc1cccc(Nc2nc3cccc(N[C@H]4CC[C@@H](O)CC4)n3n2)c1 [Example 338, cis-4-(2-(3-methoxyphenylamino)-[1,2,4]triazolo[1,5-a]pyridin-5-ylamino)cyclohexanol] | 0.005 to 250 nM
14 | CNC(=O)c1ccc(Nc2nc3cccc(Cc4cccc(O)c4)n3n2)cc1 [Example 292, 4-(5-(3-hydroxybenzyl)-[1,2,4]triazolo[1,5-a]pyridin-2-ylamino)-N-methylbenzamide] | 0.005 to 250 nM
15 | Cc1cncc(Nc2nc3cccc(N[C@H]4CC[C@@H](O)CC4)n3n2)c1 [Example 390, cis-4-(2-(5-methylpyridin-3-ylamino)-[1,2,4]triazolo[1,5-a]pyridin-5-ylamino)cyclohexanol] | 250 to 500 nM
16 | CC(C)(O)[C@H]1CC[C@@H](Nc2cccc3nc(Nc4ccc(C(F)(F)F)cc4)nn23)CC1 [Example 385, cis-2-(4-(2-(4-(trifluoromethyl)phenylamino)-[1,2,4]triazolo[1,5-a]pyridin-5-ylamino)cyclohexyl)propan-2-ol] | 500 to 1000 nM
17 | CC(C)n1ncc2ccc(Nc3nc4cccc(N[C@H]5CC[C@@H](O)CC5)n4n3)cc21 [Example 243, cis-4-(2-(1-isopropyl-1H-indazol-6-ylamino)-[1,2,4]triazolo[1,5-a]pyridin-5-ylamino)cyclohexanol] | 0.005 to 250 nM
18 | O=C1CN(Cc2cccc3nc(Nc4ccc(N5CCC(O)CC5)nc4)nn23)CCN1 [Example 221, 4-((2-(6-(4-hydroxypiperidin-1-yl)pyridin-3-ylamino)-[1,2,4]triazolo[1,5-a]pyridin-5-yl)methyl)piperazin-2-one] | 500 to 1000 nM
19 | Cc1n[nH]c2cc(Nc3nc4cccc(CC5CCOCC5)n4n3)ccc12 [Example 199, N-(3-methyl-1H-indazol-6-yl)-5-((tetrahydro-2H-pyran-4-yl)methyl)-[1,2,4]triazolo[1,5-a]pyridin-2-amine] | 0.005 to 250 nM
20 | CNc1ccc(Nc2nc3cccc(N[C@H]4CC[C@@H](O)CC4)n3n2)cn1 [Example 295, cis-4-(2-(6-(methylamino)pyridin-3-ylamino)-[1,2,4]triazolo[1,5-a]pyridin-5-ylamino)cyclohexanol] | 0.005 to 250 nM
21 | COc1ccccc1Nc1nc2cccc(N[C@H]3CC[C@@H](O)CC3)n2n1 [Example 339, cis-4-(2-(2-methoxyphenylamino)-[1,2,4]triazolo[1,5-a]pyridin-5-ylamino)cyclohexanol] | 1000 to 10000 nM

same assay, conditions: read-out: Activity Level (Syk HTRF assay IC50)

Row | SMILES | IC50
22 | Cc1n[nH]c2ccc(Nc3nc4cccc(CC5CCOCC5)n4n3)cc12 [compound 116, N-(3-methyl-1H-indazol-5-yl)-5-((tetrahydro-2H-pyran-4-yl)methyl)-[1,2,4]triazolo[1,5-a]pyridin-2-amine] | 0.005 to 250 nM
23 | Cc1cc(Nc2nc3cccc(CC4CCOCC4)n3n2)cc2c1C(C)(C)C(=O)N2 [compound 126] | 0.005 to 250 nM
24 | Nc1cc(Nc2nc3cccc(-c4ccccc4)n3n2)ccn1 [compound 40] | 500 to 1000 nM
25 | N#Cc1cc(Nc2nc3cccc(-c4ccccc4)n3n2)ccn1 [compound 52] | 1000 to 10000 nM
26 | Cc1nn(C)c2cc(Nc3nc4cccc(N[C@H]5CC[C@@H](O)CC5)n4n3)cc(F)c12 [Example 149, cis-4-(2-(4-fluoro-1,3-dimethyl-1H-indazol-6-ylamino)-[1,2,4]triazolo[1,5-a]pyridin-5-ylamino)cyclohexanol] | 0.005 to 250 nM
27 | Cc1n[nH]c2ccc(Nc3nc4cccc(N[C@H]5CC[C@H](O)CC5)n4n3)cc12 [compound 127, trans-4-(2-(3-methyl-1H-indazol-5-ylamino)-[1,2,4]triazolo[1,5-a]pyridin-5-ylamino)cyclohexanol] | 0.005 to 250 nM
28 | CNC(=O)c1ccc(Nc2nc3cccc(-c4cccc(CN)c4)n3n2)cc1 [compound 33, 4-(5-(3-(aminomethyl)phenyl)-[1,2,4]triazolo[1,5-a]pyridin-2-ylamino)-N-methylbenzamide] | 0.005 to 250 nM
29 | Cc1cc(Nc2nc3cccc(N[C@H]4CC[C@@H](O)CC4)n3n2)cnc1N1CCOCC1 [compound 105, cis-4-(2-(5-methyl-6-morpholinopyridin-3-ylamino)-[1,2,4]triazolo[1,5-a]pyridin-5-ylamino)cyclohexanol] | 0.005 to 250 nM
30 | CCn1nc(C)c2ccc(Nc3nc4cccc(N[C@H]5CC[C@@H](O)CC5)n4n3)cc21 [Example 197, cis-4-(2-(1-ethyl-3-methyl-1H-indazol-6-ylamino)-[1,2,4]triazolo[1,5-a]pyridin-5-ylamino)cyclohexanol] | 0.005 to 250 nM
